Measurements published in ChEMBL document CHEMBL1124016, “Antihypertensive activity in a series of 1-piperazino-3-phenylindans with potent 5-HT2-antagonistic activity” (J Med Chem, 1988).

Tests used:
[1] = target: Serotonin 2 (5-HT2) receptor (Rattus norvegicus, UniProt P30994+P08909+P14842); test: Inhibition of [3H]spiperone binding to 5-hydroxytryptamine 2 receptor from rat cortical membranes; format: cell membranes, Membrane
D(2) dopamine receptor = D(2) dopamine receptor (Rattus norvegicus, UniProt P61169); test: Inhibition of [3H]spiperone binding to Dopamine receptor D2 from rat striatal membranes; format: cell membranes, Membrane
Mus musculus = species: Mus musculus; test: Inhibition of methyl phenidate induced stereotyped gnawing in mice; format: functional
Rattus norvegicus [2] = species: Rattus norvegicus; test: Inhibition of L-5-HTP (L-5-hydroxytryptophan) induced head twitches in rat; format: functional
Rattus norvegicus [3] = test: Percent reduction of blood pressure in spontaneously hypertensive rat after 10 min at intraperitoneal administration of 5 mg/kg; format: functional
Rattus norvegicus [4] = test: Inhibition of 5-HT induced pressor response in pithed rats, after intravenous administration of 0.02 mg/kg; format: functional
Rattus norvegicus [5] = test: Inhibition of phenylephrine induced pressor response in pithed rats (following i.v. administration of […]); format: functional; conditions: route intravenous
[6] = target: T1, Adrenergic receptor alpha-1 (Rattus norvegicus, UniProt P15823+P23944+P43140); test: Inhibition of [3H]prazosin binding to alpha-1 adrenergic receptor from rat cortical membranes; format: cell membranes, Membrane
T1 sequence (P15823 whole entry): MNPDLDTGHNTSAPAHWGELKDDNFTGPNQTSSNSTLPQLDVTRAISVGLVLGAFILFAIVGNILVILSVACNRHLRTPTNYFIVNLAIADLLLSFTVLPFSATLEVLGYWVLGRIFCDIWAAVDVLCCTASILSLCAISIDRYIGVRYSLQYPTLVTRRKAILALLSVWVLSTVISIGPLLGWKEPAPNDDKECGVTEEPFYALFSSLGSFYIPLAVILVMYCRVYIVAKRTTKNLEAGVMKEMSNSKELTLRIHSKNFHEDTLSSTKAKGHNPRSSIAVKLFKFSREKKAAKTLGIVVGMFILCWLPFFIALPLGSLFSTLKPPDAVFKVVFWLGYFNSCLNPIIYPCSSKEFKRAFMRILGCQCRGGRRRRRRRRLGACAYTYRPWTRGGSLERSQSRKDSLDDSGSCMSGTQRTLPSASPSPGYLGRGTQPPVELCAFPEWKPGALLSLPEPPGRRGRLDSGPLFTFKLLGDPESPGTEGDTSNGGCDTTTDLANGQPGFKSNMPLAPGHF
T1 sequence (P23944 whole entry): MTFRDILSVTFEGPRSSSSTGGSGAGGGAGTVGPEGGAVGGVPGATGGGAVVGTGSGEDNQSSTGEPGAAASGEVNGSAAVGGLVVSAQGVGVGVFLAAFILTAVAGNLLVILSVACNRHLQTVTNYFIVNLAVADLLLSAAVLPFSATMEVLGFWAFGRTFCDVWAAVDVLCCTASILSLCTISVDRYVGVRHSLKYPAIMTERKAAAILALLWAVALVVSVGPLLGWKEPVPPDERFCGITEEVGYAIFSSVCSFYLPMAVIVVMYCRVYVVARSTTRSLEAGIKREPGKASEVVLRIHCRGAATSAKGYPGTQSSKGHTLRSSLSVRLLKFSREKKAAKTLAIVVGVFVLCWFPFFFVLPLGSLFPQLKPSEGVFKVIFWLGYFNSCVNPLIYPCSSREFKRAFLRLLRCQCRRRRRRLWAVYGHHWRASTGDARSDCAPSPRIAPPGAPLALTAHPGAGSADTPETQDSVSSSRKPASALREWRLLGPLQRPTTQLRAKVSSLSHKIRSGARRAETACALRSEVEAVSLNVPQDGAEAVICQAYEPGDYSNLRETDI
T1 sequence (P43140 whole entry): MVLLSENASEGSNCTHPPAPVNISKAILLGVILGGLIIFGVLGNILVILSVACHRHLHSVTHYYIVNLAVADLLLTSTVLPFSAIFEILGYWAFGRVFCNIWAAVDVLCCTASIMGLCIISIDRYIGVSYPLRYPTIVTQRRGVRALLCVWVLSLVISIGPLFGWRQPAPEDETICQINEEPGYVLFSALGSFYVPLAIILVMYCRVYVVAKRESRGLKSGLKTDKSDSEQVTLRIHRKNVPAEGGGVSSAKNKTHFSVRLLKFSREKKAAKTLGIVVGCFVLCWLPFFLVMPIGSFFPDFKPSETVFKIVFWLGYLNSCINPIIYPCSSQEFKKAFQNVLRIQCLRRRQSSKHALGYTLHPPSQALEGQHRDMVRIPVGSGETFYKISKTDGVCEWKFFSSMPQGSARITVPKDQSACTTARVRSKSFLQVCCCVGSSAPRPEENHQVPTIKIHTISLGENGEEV

Rattus norvegicus [7] = test: Inhibition of 5-HT induced pressor response in pithed rats, after intravenous administration, activity is expressed as ED50; format: functional
Rattus norvegicus [8] = test: Inhibition of 5-HT induced pressor response in pithed rats, after intravenous administration; format: functional
Rattus norvegicus [9] = species: Rattus norvegicus; test: Ratio of phenylephrine ED50/ 5-HT ED50; format: functional
[10] = Rattus norvegicus, read-out: ED50

Chain of D(2) dopamine receptor (P61169 whole entry): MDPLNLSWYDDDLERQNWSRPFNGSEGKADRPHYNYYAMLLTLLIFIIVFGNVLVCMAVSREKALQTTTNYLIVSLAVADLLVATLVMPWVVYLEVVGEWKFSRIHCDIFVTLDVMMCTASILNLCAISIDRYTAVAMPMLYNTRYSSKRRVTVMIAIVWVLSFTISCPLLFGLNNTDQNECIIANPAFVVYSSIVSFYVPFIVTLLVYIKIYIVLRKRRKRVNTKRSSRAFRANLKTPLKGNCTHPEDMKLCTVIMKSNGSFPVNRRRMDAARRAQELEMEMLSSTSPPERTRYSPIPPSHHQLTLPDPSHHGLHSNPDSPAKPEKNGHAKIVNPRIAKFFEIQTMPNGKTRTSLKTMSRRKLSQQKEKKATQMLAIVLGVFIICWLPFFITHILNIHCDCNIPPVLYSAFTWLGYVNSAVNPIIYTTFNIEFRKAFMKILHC

Row | SMILES | IC50 [1] [nM] | IC50 (D(2) dopamine receptor) [nM] | ED50 (Mus musculus) [µmol/kg] | ED50 (Rattus norvegicus [2]; [10]) [µmol/kg] | Reduction (Rattus norvegicus [3]) [%] | Change (Rattus norvegicus [4]) [%] | Change (Rattus norvegicus [5]) [%] | IC50 [6] [nM] | ED50 (Rattus norvegicus [7]) [µmol/kg] | ED50 (Rattus norvegicus [8]) [µmol/kg] | Ratio (Rattus norvegicus [9]) | ED50 (Rattus norvegicus [2]) [µmol/kg]
1 | O=C1NCCN1CCN1CCN(C(=O)c2ccc(F)cc2)CC1 | 58000 | > 1000 | > 125 | 1.8 | 11 | – | – | – | – | – | – | –
2 | O=C(O)/C=C\C(=O)O.O=C(O)/C=C\C(=O)O.O=C1NCCN1CCN1CCN([C@H]2C[C@H](c3ccccc3F)c3ccccc32)CC1 | – | – | > 62 | > 31 | -8 | 0 | 3 | – | – | – | – | –
3 | CN1CCN(CCN2CCN(C3CC(c4ccc(F)cc4)c4ccccc43)CC2)C1=O.Cl.Cl.O (stereo not given) | 13 | – | > 80 | – | -6 | – | – | – | – | – | – | –
4 | Cl.Cl.O=C1OCCN1CCCN1CCN(C2CC(c3ccc(F)cc3)c3ccc(F)cc32)CC1 (stereo not given) | 22 | 30 | – | – | -12 | -32 | – | – | – | – | – | –
5 | Cl.Cl.O=c1[nH]c2ccccc2c(=O)n1CCN1CCN(C2CC(c3ccc(F)cc3)c3ccccc32)CC1 (stereo not given) | 3.4 | 60 | > 70 | 4.4 | -22 | -35 | -42 | 5.5 | 0.77 | 0.1 | 7.7 | –
6 | O=C(O)/C=C\C(=O)O.O=C(O)/C=C\C(=O)O.O=C1NCCCN1CCN1CCN(C2CC(c3ccc(F)cc3)c3ccc(F)cc32)CC1 (stereo not given) | 11 | – | > 59 | – | 0 | – | – | – | – | – | – | –
7 | Cl.Cl.OC1=NCCN1CCN1CCN(C2CC(c3ccc(Cl)cc3)c3ccccc32)CC1 (stereo not given) | 37 | 800 | > 80 | 40 | 3 | 13 | 15 | – | – | – | – | –
8 | Cl.Cl.O=C1CCCN1CCN1CCN(C2CC(c3ccc(F)cc3)c3ccc(F)cc32)CC1 (stereo not given) | 12 | 85 | – | – | 0 | – | – | 36 | – | – | – | –
9 | O=C(O)/C=C\C(=O)O.O=C(O)/C=C\C(=O)O.O=C1NCCN1CCN1CCN([C@@H]2C[C@@H](c3ccccc3F)c3ccccc32)CC1 | – | – | > 62 | 17 | -3 | -18 | 13 | – | – | – | – | –
10 | Fc1ccc(C2CC(N3CCNCC3)c3ccccc32)cc1 (stereo not given) | 30 | 1900 | > 108 | 2.5 | 10 | -13 | 7 | 100 | – | – | – | –
11 | O=C1NCCN1CCN1CCN([C@H]2C[C@H](c3ccccc3)c3ccccc32)CC1 | – | – | – | – | -7 | -11 | 0 | – | – | – | – | –
12 | O=C(c1ccc(F)cc1)C1CCN(CCn2c(=O)[nH]c3ccccc3c2=O)CC1 [KETANSERIN] | – | 1800 | > 101 | 0.79 | -32 | -62 | -14 | 15 | 3.2 | 0.024 | – | –
13 | Fc1ccc(C2CC(N3CCN(CCN4CCN=C4S)CC3)c3ccccc32)cc1.O=C(O)/C=C\C(=O)O.O=C(O)/C=C\C(=O)O (stereo not given) | 3.3 | – | > 61 | 0.43 | -18 | – | – | – | – | – | – | –
14 | CN1CCN(CCN2CCN(C3CC(c4ccc(F)cc4)c4ccc(F)cc43)CC2)C1=O.Cl.Cl (stereo not given) | 3.3 | 260 | > 78 | 0.078 | -11 | – | – | 11 | 13 | 0.01 | 1300 | –
15 | CN1CCN(CCN2CCN([C@@H]3C[C@@H](c4ccc(F)cc4)c4ccc(F)cc43)CC2)C1=O | 10 | 38 | – | 0.023 | -32 | – | -29 | 11 | 2.2 | 0.0043 | 550 | –
16 | Cl.Cl.Oc1nc2ccccc2n1CCN1CCN(C2CC(c3ccc(F)cc3)c3ccc(F)cc32)CC1 (stereo not given) | 9.4 | 25 | > 72 | – | -15 | – | – | 160 | – | – | – | –
17 | COc1ccc(C2CC(N3CCN(CCN4CCNC4=O)CC3)c3ccccc32)cc1 (stereo not given) | 250 | 15000 | > 95 | > 48 | 3 | -19 | 69 | 1400 | – | – | – | –
18 | O=C1NCCN1CCN1CCN(Cc2ccccc2)CC1 | > 1000 | > 1000 | > 139 | > 4.3 | 15 | – | – | > 10000 | – | – | – | –
19 | CCN1CCN(CCN2CCN(C3CC(c4ccc(F)cc4)c4ccc(F)cc43)CC2)C1=O.Cl.Cl (stereo not given) | 4.8 | 25 | > 75 | – | 4 | – | – | 34 | – | – | – | –
20 | Fc1ccc(C2CC(N3CCN(CCN4CCN=C4S)CC3)c3cc(F)ccc32)cc1 (stereo not given) | 4.9 | – | – | – | -10 | – | – | – | – | 0.01 | 370 | –
21 | Fc1ccc([C@@H]2C[C@@H](N3CCN(CCN4CCN=C4S)CC3)c3cc(F)ccc32)cc1.O=C(O)/C=C\C(=O)O.O=C(O)/C=C\C(=O)O | 2.2 | 29 | – | – | -32 | – | – | 13 | – | – | – | –
22 | Cc1nc2sccn2c(=O)c1CCN1CCC(=C(c2ccc(F)cc2)c2ccc(F)cc2)CC1 [RITANSERIN] | – | – | > 84 | 1.2 | 10 | -95 | 16 | 47 | – | – | – | –
23 | O=C1NCCN1CCN1CCN(C(=O)c2ccccc2)CC1 | 4800 | > 1000 | > 132 | > 8.2 | 6 | – | – | – | – | – | – | –
24 | COc1cc2nc(N3CCN(C(=O)c4ccco4)CC3)nc(N)c2cc1OC [PRAZOSIN] | – | – | > 95 | 0.45 | -32 | 0 | -100 | – | 0.0095 | > 12 | – | –
25 | CN1CCN(C2CC(c3ccc(F)cc3)c3ccc(F)cc32)CC1 (stereo not given) | 7.7 | – | 11 | 0.079 | -15 | -85 | -19 | 22 | – | – | – | –
26 | Fc1ccc(C2CC(N3CCN(CCN4CCCN=C4S)CC3)c3cc(F)ccc32)cc1.O=C(O)/C=C\C(=O)O.O=C(O)/C=C\C(=O)O (stereo not given) | 7.5 | 51 | 23 | – | -13 | – | – | – | – | – | – | –
27 | Cl.Cl.O.O=C1OCCN1CCN1CCN(C2CC(c3ccc(F)cc3)c3ccc(F)cc32)CC1 (stereo not given) | 44 | – | – | – | -20 | -27 | 19 | – | 4.4 | – | 5.2 | –
28 | O=C(O)/C=C\C(=O)O.O=C(O)/C=C\C(=O)O.O=C1NCCN1CCN1CCN(C2CC(c3ccccc3)c3ccccc32)CC1 (stereo not given) | 12 | 1900 | > 64 | – | – | – | – | – | – | – | – | 26
